# Measurements as given in patent US5300279A, “Organic amine phosphonic acid complexes for the treatment of calcific tumors” (The Dow Chemical Company, priority 1990, dated 1994).
# Like-named read-outs stand apart in the source and are kept apart here.
# Experiments:
# [1] = biolocalization of the radionuclide in rats (tissue distribution after tail vein injection); assay type: in vivo, male Sprague Dawley rats; conditions: Sm-153, rats
# Method: Studies to determine the qualitative biodistribution of the various radionuclides were conducted by injecting the compositions into rats and obtaining the gamma ray images of the entire animal at various times up to two hours after injection.
# Laboratory rats were injected with the above complex (50-100 μl) via the tail vein. After 2 hours, the animals were sacrificed by cervical dislocation and organs and tissues removed. Samples were counted with a NaI counter to determine the biolocalization of the radionuclide.
# [2] = rabbits, three hour, averaged for 5 rabbits
# Method: Biolocalization studies were also performed in rabbits. The rabbits were injected with 100-250 microliters of the composition into the marginal ear vein. In studies where blood clearance was measured, blood samples were taken through a heparinized cannula placed in the marginal vein of the ear not used for injection. Three hours after injection, a blood sample was taken from each rabbit by cardiac puncture and each animal was sacrificed by injection of a commercial euthanasia solution. After sacrifice, images were obtained by placing the carcass directly on the face of a large field-of-view scintillation camera.
# Whenever in the following examples and tables data is presented on the administered dose of radioactivity, the numbers given represent the percentage of the administered dose which localized in the indicated tissue. The ratios of radioactivity observed in bone relative to blood and muscle were calculated based on the percent dose per gram in the bone and in the blood and muscle. Whenever the ratios of radioactivity found in bone to that found in nonosseous tissue is given, the calculation was made as indicated above on a percent dose per gram basis.
# Compositions containing Sm-153-EDTMP (compositions prepared as in Example 2) were also tested in rabbits.
# lesion / normal bone = conditions: compared with Tc-99m-MDP
# Method: Thus, two holes were drilled into the surface of the tibia of a rabbit in order to damage the bone. Seven to ten days later, the animal was injected with the radionuclide composition. After three hours, the rabbit was anesthetized and imaged using an Anger camera and pinhole collimator.
# tumor = test system: tumor
# Method: An English Setter with a tumor in his pelvis was injected with approximately 19 mCi of a composition containing Sm-153-EDTMP. After 2 hours, the dog was imaged using a scintillation camera.
# An Irish setter with undifferentiated sarcoma metastatic to bone was treated with 16 mCi (0.57 mCi/kg) of a composition containing Sm-153-EDTMP. […] After approximately 3 months, when signs of lameness began to reappear, the dog was given a second treatment of 15 mCi (0.49 mCi/kg), of a composition containing Sm-153-EDTMP.
# A female Irish Wolfhound with a possible osteosarcoma on the left distal radius was injected with a composition containing ^166 Ho-EDTMP (0.97 mCi/kg).
# [3] = 2 hours, ratio of percent dose per gram, average of 5 rats
# [4] = Irish setter, nine months after second treatment
smiles,measurement,setting,value
O=P([O-])(O)CN(CCN(CP(=O)([O-])O)CP(=O)(O)O)CP(=O)([O-])O.[153Sm+3] [Example 2],scintillation scans,[1],the radioactivity concentrating in the skeletal system
same,clearance of radioactivity through the kidneys into the urine,[1]; 2 hours,Most of the radioactivity not found in the skeleton was cleared through the kidneys into the urine
same,radioactivity concentrated in the skeletal system,[1]; 2 hours,55-65%
same,soft tissue uptake,[1]; 2 hours,very little soft tissue uptake
same,% Dose in Blood,"[1]; 2 hours, average of 5 rats",0.032 % Dose
same,% Dose in Liver,"[1]; 2 hours, average of 5 rats",0.25 % Dose
same,% Dose in Skeleton,"[1]; 2 hours, average of 5 rats",58 % Dose
same,% Dose in Urine,"[1]; 2 hours, average of 5 rats",49 % Dose
same,Bone/Blood,[1]; [3],1800
same,Bone/Muscle,[1]; [3],1500
same,% Dose in Blood,[2],0.12 % Dose
same,% Dose in Bone Marrow,[2],0.15 % Dose
same,% Dose in Liver,[2],0.95 % Dose
same,% Dose in Skeleton,[2],66 % Dose
same,% Dose in Urine,[2]; 180 min,34 % Dose
same,Bone/Blood,[2]; ratio of percent dose per gram,900
same,Bone/Muscle,[2]; ratio of percent dose per gram,1200
same,lesion to normal bone ratio,lesion / normal bone,approximately equal to that of Tc-99m-MDP
same,pain / mobility,"tumor; English Setter, approximately 19 mCi, seven days after treatment",appeared to be in less pain as evidenced by an increase in its mobility
same,pain / mobility / lameness,"tumor; Irish setter, 16 mCi (0.57 mCi/kg), seven days after treatment",appeared to be in less pain as evidenced by an increase in mobility and a decrease in lameness
same,time until signs of lameness began to reappear,"tumor; Irish setter, after first treatment 16 mCi (0.57 mCi/kg)",approximately 3 months
same,lameness and general health,"tumor; Irish setter, eight months after second treatment","no recurrence of lameness, had gained weight and appeared healthy"
same,regression of bone lesions (X-rays),"tumor; Irish setter, five months after second treatment",significant regression of bone lesions
same,death,tumor; [4],died of kidney failure
same,total necropsy,tumor; [4],no evidence of cancer
same,mobility / lameness after second treatment,"tumor; Irish setter, second treatment 15 mCi (0.49 mCi/kg), seven days",general increase in mobility and decrease in lameness
